Legend:
[1] = system: db/db mice; test: Oral glucose tolerance test; assay type: in vivo; conditions: fasted db/db mice, 2 g/kg oral glucose 30 minutes after substance
Protocol: Oral Glucose Tolerance Test
Fasted db/db mice 7 to 9 weeks old (Janvier, France) are weighed and blood is taken from the tip of the tail. This blood is used for the first measurement of glucose on the basis of which the animals are randomised and divided into groups. The test substance to be tested may be given either orally or i.p. as a suspension in 0.5% Natrosol. 30 minutes after the administration of the substance the animals are given orally 2 g/kg glucose in a volume of 0.1 ml/100 g body weight dissolved in NaCl solution. Subsequently, the glucose values are determined from the tail blood using a glucometer (Ultra OneTouch, Lifescan) at specific time intervals [30, 60, 120 and 180 minutes after oral administration of the glucose].

[2] = system: rats; test: Tolerability after oral administration to rats (behaviour); assay type: in vivo; conditions: oral administration of 10 mg/kg

CC(=O)c1ccc2c(c1)/C(=C(/NC1CCN(C)CC1)c1ccc3c(c1)OCO3)C(=O)N2 [Example 1, 5-Acetyl-3-[(benzo[1,3]dioxol-5-yl)-(1-methyl-piperidin-4-ylamino)-methylidene]-2-indolinone]
activity in the oral glucose tolerance test [1]: significant activity | changes in the animals' behaviour [2]: no changes were observed in the animals' behaviour

— patent US7262206B2, “Cycloalkyl—containing 5-acylindolinones, the preparation thereof and their use as medicaments” (Boehringer Ingelheim International GmbH, priority 2004, dated 2007)
